Reference: patent US5162571A, “Phenol derivatives, their production and use” (Takeda Chemical Industries, Ltd., priority 1987, dated 1992)

Tests used:
[1] = test system: lipid peroxides production in rat brain homogenates; test: Inhibitory action on lipid peroxides production in rat brain homogenates; type: biochemical; conditions: 10^-5 M
Protocol: Inhibitory action on lipid peroxides production in rat brain homogenates
Method: The male SD rat brain tissue was used as 5% homogenate in phosphate-buffered solution. After incubation of the homogenate for 1 hour at 37° C., the amount of lipid peroxides produced was determined by the thiobarbituric acid method according to the description of Ohkawa et al. (Analytical Biochemistry, 95: 551, 1979)
Test compounds were used as a solution of dimethylsulfoxide. The inhibitory action on lipid peroxide production was expressed as a % inhibition as compared with the amount of production in the vehicle group.

[2] = test system: U-46619 (TXA2 mimic)-induced broncho-constriction; test: Inhibitory effect on U-46619 (TXA2 mimic)-induced broncho-constriction in guinea pig; type: in vivo; conditions: Cavia porcellus, ** p < 0.01; for inhibition in vivo at 5 mg/kg: po, 5 mg/kg p.o., 1 hour before U-46619
Protocol: Inhibitory effect on U-46619 (TXA2 mimic)-induced broncho-constrictionin guinea pig
Method: Eight male Hartley guinea pigs were used per one group. The guinea pig anesthetized with urethane (1.5 g/kg, i.p.) was fixed in a dorsal position, subjected to tracheotomy and connected to a respirator through a cannula. A side branch of the tracheal cannula was connected to a respirator (Harvard apparatus rodent respirator Type 680) at the rate of 70 strokes/min. and a constant volume of 3 to 5 ml.
Inflation pressure was kept constant at 10 cm H2 O.
After treatment with gallamine triethiodide (1 mg/kg, i.v.), U-46619 (10 μg/Kg) dissolved in a physiological saline solution was given through a carotid cannula and the airway resistance was measured by the overflow technique of Konzett-Rossler method (Konzett, H. and Rossler, R., Naunyn-Schmiedegerg's Arch, Exp. Path. Pharmak., 195, 71-74 (1940). A test compound was suspended in 5% gum arabic solution and was administered orally 1 hour before the treatment with U-46619.
Alternatively, a test compound was dissolved in aqueous 50% dimethylsulfoxide solution and administered interveneously in the dosage of 0.1 ml/100 g body weight 9 minutes before the treatment of U-46619.

[3] = molecular target: T1, specific [^3 H] U-46619 binding to guinea pig platelet membrane (Cavia porcellus, UniProt A0A286Y4I8); test: Inhibition of specific [^3 H] U-46619 binding to guinea pig platelet membrane; conditions: [^3 H] U-46619, 25° C., 30 min; read-out: IC50 (Concentration for 50% inhibition)
T1 construct: Platelet membranes were prepared according to the following procedure; from tissue; host or cells: guinea pig platelet membranes
T1 sequence (A0A286Y4I8 1-347): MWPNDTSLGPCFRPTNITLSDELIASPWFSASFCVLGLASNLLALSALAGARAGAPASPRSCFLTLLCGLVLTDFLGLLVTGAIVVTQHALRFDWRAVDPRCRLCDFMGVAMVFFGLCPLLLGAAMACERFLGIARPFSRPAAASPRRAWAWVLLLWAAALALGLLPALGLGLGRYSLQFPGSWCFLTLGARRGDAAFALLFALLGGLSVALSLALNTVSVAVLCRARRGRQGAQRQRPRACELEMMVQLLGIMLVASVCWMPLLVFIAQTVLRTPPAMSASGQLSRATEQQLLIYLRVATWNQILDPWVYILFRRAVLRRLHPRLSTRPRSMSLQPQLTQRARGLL
Protocol: Inhibition of specific [^3 H] U-46619 binding to guinea pig platelet membrane
Method: Blood from normal guinea pig was collected into 0.315% citrate solution containing aspirin (final concentration 1 mM) and was centrifuged at 3000 r.p.m. for […]. The PRP (platelet rich plasma) was centrifuged at 4800 r.p.m for 10 min. at 4° C. Platelet membranes were prepared according to the following procedure: In order to remove the residual plasma protein, the platelet pellet was washed once with 30 ml of buffer containing 25 mM Tris-HCl/5 mM MgCl2 (pH 7.4) and recentrifuged to pellet the platelets. The platelets were then resuspended in 20 ml of the same buffer, and the cells were disrupted by sonication. The sonication was performed on ice using a Kontes Sonicator (Vineland, N.J.). The platelets were sonicated for a total of 90 sec. with a 15 sec. burst followed by a 15 sec. intermission. The sonicated mixture was centrifuged at 100,000×g for 1 hour and the membrane fraction was suspended in the same buffer. The protein concentration was adjusted to 1 mg/ml.
The binding assay was performed at 25° C. for 30 min. One ml of the resuspended membrane fraction was incubated with […] of [^3 H] U-46619. The incubation mixture was filtered through a glass fiber membrane (GF/C, whatman) to separate the membrane bound from free [^3 H] U-46619. The membranes were quickly washed twice with 5 ml of cold buffer, mixed with 4 ml of ACS scintillation fluid and counted for [^3 H] U-46619.

[4] = molecular target: T2, Thromboxane A2 (TXA2) receptor (Oryctolagus cuniculus, UniProt Q6WQI8); test: Thromboxane A2 (TXA2) receptor antagonism: inhibitory effect on contraction of rabbit aorta by TXA2-mimics; type: cell-based; conditions: U-44069 (10^-7 M)-induced contraction; for inhibition at 1 µM: 10^-6 M; for inhibition at 0.1 µM: 10^-7 M
T2 construct: contraction by TXA2 mimics U-44069 or U-46619
T2 sequence (Q6WQI8 1-233): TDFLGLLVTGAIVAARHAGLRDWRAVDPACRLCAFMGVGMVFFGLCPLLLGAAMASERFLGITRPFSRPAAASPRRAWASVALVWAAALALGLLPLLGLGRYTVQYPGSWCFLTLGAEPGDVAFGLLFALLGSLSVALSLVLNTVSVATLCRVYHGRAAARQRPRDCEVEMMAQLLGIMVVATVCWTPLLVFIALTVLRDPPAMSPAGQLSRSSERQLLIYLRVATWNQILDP
Protocol: Thromboxane A2 (TXA2) receptor antagonism
Inhibitory effect on contraction of rabbit aorta by thromboxan A2 (TXA2)-mimics
(§1) Method: A spiral strip of the rabbit aorta (2-3 mm wide, about 3 cm long) was suspended in Krebs-Henseleit solution under the load of 2 g. The Krebs-Henseleit solution was saturated with a mixed gas of 95%O2 -5%CO2 and warmed at 37° C. Inhibition of the contraction of the vascular strip caused by a TXA2 mimic substance U-44069^1) (10^-7 M) or U-46619^2) (3×10 ^-8 M), by pretreatment with Compound No. 13 30 minutes before was studied.
1) U-44069: (5Z, 9α, 11α, 13E, 15S)-15-hydroxy-9,11-(epoxymethano)-prosta-5,13-dienoic acid (manufacturedby The Upjohn Company in U.S.A.)
2) U-46619: (5Z, 9α, 11α, […], 15S)-15-hydroxy-11,9-(epoxymethano)-prosta-5,13-dienoic acid (manufacturedby Cayman Chemical Company)
In Table 5, "*" represents addition of U-46619.

[5] = test system: chorioallantoic membrane; test: Angiogenesis inhibitory activity, shell-less chorioallantoic membrane (CAM) assay; type: in vivo, chick; conditions: 6 disks tested
Protocol: Angiogenesis inhibitory activity
Method: Shell-less chorioallantoic membrane assay.
The shell-less chorioallantoic membrane (CAM) assay was carried out by the method of Taylor and Folkman [S. Taylor and J. Folkman; Nature, 297, 307 (1982)] with a slight modification. Thus, 3-day chick embryos were removed from their shells and cultured in plastic cups on hammocks of plastic wrap. Samples along with ECGS (endothelial cell growth supplements, Collaborative Research Inc.) were placed on plastic disks (polypropylene, 6 mm in diameter). After the solution had dried, the disks were placed on the CAM of 10-day embryos. Three days later, inhibition of the neovascular formation by fumagillin was observed under a stereoscope (×20, SMZ-10, Nikon), and compared to the control disk containing ECGS as a stimulant of angiogenesis without samples.

[6] = Extension of bleeding time; type: in vivo, rat; conditions: one hour before
Protocol: Extension of bleeding time
Method: Test compounds were administered orally to rats one hour before the experiments. The rats were anesthetized and the tail was cut at 1.5 mm from the tip. Immediately, the tail was hung down into a physiological saline warmed at 37° C. The time required from initiation to stop of bleeding (bleeding time) was measured.

[7] = test system: vasoconstriction by PGD2 (rabbit aorta); test: Inhibitory effect of vasoconstriction by PGD2; type: cell-based; conditions: Oryctolagus cuniculus; 10^-7 M; PGD2 (3×10^-6 M); n = 2; read-out: Inhibitory Rate (%)
Protocol: Inhibitory effect of vasoconstriction by PGD2
as §1, with “95% O2 -5% CO2” for “95%O2 -5%CO2”, “addition of PGD2 (3×10^-6” for “a TXA2 mimic substance U-44069^1) (10^-7”, “M)” for “M) or U-46619^2) (3×10 ^-8 M),”

IC50 [3] [nM] | inhibition at 10 µM ([4]; 10^-5 M) [%] | inhibition at 1 µM [4] [%] | Bleeding time ([6]; 10 mg/kg oral, control 173 ± 23, * p < 0.05) [s] | Bleeding time ([6]; 30 mg/kg oral, control 164 ± 27, ** p < 0.01) [s] | inhibition at 0.1 µM [4] [%] | SMILES | Inhibition (%) [1] [%] | inhibition in vivo at 5 mg/kg [2] [%] | Number of disks showing angiogenesis inhibition ([5]; 4 μg) | Number of disks showing angiogenesis inhibition ([5]; 20 μg) | inhibition in vivo at 0.31 mg/kg ([2]; iv, 0.31 mg/kg i.v., 9 minutes before U-46619) [%] | inhibition at 0.1 µM [7] [%]
240 | 100 | 56 | – | – | – | Cc1cc(C)c(O)c(C(CCCCCC(=O)O)c2ccc(F)cc2)c1C (stereo not shown) [Compound 1, 7-(4-fluorophenyl)-7-(2-hydroxy-3,5,6-trimethylphenyl)heptanoic acid] | 92.0 | 55 | 3 | 6 | – | –
49 | – | 99 | 235 ± 38 | 529 ± 154 | 5 | Cc1c(O)c(C(CCCCCC(=O)O)c2ccc(F)cc2)c(C)c2c1CCC2 (stereo not shown) [Compound 21] | – | 76 | – | – | 51 | 54
2.3 | – | – | – | – | 98 | Cc1c(C)c(C=O)c(C)c(C(CCCCCC(=O)O)c2ccc(F)cc2)c1O (stereo not shown) [Compound 27, 7-(4-fluorophenyl)-7-(3-formyl-6-hydroxy-2,4,5-trimethylphenyl)heptanoic acid] | – | 84 | – | – | – | 100
